Assay results from ChEMBL document CHEMBL4616589, “Exploring structure-promiscuity relationships using dual-site promiscuity cliffs and corresponding single-site analogs” (Bioorg Med Chem, 2020).

Columns and labels:
[1] = target: Vascular endothelial growth factor receptor 1 (Homo sapiens, UniProt P17948); assay: Inhibition of VEGFR1 (unknown origin)
[2] = target: Tyrosine-protein kinase ABL1 (Homo sapiens, UniProt P00519); assay: Inhibition of ABL1 (unknown origin)
Chain of Tyrosine-protein kinase ABL1 (P00519 whole entry): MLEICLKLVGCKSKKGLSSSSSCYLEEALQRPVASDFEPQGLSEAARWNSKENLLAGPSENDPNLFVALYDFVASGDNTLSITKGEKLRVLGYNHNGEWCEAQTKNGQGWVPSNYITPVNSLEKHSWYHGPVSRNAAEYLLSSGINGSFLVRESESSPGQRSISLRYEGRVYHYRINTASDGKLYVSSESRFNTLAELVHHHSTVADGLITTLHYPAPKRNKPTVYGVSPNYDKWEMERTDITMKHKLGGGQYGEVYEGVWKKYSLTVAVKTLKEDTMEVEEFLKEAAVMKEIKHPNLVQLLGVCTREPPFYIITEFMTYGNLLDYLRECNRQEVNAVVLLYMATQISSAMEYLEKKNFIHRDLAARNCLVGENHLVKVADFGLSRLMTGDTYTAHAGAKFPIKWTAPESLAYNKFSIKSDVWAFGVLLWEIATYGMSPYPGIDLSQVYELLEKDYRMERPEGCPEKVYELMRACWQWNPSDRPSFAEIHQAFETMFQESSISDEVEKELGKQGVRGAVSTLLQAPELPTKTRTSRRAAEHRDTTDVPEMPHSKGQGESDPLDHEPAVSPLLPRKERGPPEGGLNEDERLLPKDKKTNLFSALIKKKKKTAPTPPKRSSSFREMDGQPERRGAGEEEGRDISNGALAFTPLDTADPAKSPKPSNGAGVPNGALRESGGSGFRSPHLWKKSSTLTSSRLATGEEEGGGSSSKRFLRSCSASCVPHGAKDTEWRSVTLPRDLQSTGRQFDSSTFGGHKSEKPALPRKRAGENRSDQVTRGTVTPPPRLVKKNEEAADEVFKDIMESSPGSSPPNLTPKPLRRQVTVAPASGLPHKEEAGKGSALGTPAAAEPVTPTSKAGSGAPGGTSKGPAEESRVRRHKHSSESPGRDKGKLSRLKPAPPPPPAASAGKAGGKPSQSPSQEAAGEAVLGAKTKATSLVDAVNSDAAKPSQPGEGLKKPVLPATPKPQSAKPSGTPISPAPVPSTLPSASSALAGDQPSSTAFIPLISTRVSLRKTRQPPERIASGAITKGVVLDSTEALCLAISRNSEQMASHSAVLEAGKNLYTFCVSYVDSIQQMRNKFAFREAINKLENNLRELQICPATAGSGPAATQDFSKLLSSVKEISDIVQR

Chain of Vascular endothelial growth factor receptor 1 (P17948 whole entry): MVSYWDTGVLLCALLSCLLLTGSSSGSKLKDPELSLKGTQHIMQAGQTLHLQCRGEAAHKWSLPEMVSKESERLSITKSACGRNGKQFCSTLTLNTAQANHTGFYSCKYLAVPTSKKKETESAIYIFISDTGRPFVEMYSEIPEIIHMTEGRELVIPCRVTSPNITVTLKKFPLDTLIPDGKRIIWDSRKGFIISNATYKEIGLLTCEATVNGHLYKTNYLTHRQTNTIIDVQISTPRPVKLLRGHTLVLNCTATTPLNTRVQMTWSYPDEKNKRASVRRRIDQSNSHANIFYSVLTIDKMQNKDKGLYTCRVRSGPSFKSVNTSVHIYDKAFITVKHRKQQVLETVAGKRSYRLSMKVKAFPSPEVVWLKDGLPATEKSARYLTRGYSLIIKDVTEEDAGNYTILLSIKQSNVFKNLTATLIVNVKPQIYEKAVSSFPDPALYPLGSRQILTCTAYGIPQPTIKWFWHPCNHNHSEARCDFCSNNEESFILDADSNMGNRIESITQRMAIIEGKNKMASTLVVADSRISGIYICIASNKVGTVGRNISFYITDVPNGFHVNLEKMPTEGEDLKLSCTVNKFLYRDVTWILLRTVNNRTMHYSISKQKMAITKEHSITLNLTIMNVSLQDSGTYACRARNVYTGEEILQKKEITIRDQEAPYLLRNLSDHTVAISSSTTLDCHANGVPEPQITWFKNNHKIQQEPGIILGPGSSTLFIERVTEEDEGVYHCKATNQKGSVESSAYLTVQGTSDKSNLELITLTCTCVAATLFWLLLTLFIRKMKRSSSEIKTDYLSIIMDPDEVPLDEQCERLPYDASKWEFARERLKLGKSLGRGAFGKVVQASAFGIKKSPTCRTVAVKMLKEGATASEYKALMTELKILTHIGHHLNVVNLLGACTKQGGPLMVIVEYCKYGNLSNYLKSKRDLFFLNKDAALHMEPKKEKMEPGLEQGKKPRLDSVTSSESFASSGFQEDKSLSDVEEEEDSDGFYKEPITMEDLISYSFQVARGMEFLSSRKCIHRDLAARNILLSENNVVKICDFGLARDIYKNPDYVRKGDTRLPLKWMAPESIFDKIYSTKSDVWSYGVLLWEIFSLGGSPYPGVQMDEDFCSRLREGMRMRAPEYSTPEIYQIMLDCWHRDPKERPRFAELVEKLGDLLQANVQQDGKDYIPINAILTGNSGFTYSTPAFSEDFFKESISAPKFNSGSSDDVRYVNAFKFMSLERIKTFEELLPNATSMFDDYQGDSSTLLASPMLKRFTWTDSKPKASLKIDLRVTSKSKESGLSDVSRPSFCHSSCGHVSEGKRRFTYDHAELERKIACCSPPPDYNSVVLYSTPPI

IC50 [1]	Ki [2]	Structure (SMILES)
1000 nM		ClC(Cn1ncc2c(NCc3ccccc3)ncnc21)c1ccccc1 (configuration not stated)
	2000 nM	CCCCNc1ncnc2c1cnn2CC(Cl)c1ccccc1 (configuration not stated)
